Data from publication PMC12668310, “High‐Throughput Synthesis and Screening of a Cyanimide Library Identifies Selective Inhibitors of ISG15‐Specific Protease mUSP18” (Angewandte Chemie (International Ed. in English), 2025).

What was measured:
mUSP18 = target: T1, mUSP18 (Mus musculus, UniProt Q9WTV6); assay: kinact/KI determination (kobs plot); assay type: biochemical, murine
T1 construct: (46-368); His-tag (N); made in house
T1 sequence (Q9WTV6 46-368): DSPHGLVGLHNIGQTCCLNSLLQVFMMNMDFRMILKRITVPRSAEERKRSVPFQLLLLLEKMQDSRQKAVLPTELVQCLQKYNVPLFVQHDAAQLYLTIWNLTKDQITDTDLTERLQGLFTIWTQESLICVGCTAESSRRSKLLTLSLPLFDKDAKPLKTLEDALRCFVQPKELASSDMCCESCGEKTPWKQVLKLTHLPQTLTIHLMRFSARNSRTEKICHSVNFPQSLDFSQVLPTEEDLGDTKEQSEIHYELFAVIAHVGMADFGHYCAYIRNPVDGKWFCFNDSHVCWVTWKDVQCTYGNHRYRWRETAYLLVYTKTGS

Flag-mUSP18 = target: T2, Flag-mUSP18 (Mus musculus, UniProt Q9WTV6); assay: Gel-based ABPP with Rho-mISG15ct-PA probe in HEK293T cells overexpressing Flag-mUSP18; assay type: cell-based, murine; settings: live HEK293T cells, Flag-mUSP18, 4 h treatment
T2 construct: expressed in transfected cells; host or cells: HEK293T
T2 sequence (Q9WTV6 1-368): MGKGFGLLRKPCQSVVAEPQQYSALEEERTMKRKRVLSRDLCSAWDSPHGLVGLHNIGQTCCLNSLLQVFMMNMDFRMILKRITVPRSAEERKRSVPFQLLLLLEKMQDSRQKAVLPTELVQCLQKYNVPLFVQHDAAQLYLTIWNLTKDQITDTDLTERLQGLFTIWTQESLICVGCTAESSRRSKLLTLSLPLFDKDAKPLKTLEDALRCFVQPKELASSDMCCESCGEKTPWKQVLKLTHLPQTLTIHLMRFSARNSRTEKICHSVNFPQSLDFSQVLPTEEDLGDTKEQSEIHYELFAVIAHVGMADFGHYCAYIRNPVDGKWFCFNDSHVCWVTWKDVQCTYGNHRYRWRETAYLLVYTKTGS
Description: To assess the cellular target engagement and cell permeability of these inhibitors, we performed activity‐based protein profiling. […] Following washing and cell lysis, cell extracts were incubated with a Rhodamine‐tagged murine ISG15 C‐terminal domain propargylamide activity‐based probe (Rho‐mISG15ct‐PA), which covalently labels the active site cysteine of active deISGylating enzymes.^[ [41] ^] The labelled enzymes were resolved by SDS‐PAGE and imaged by in‐gel fluorescence, where inhibition of USP18 is reflected by disappearance of the USP18‐probe‐labelled bands around 55 kDa (Figures 6a, S11A). All three inhibitors engaged with cellular mUSP18 in a dose‐dependent manner, with BB07CA902 and BB07CA28 showing efficient inhibition already at 1 µM concentration. […] The in‐cell selectivity of these inhibitors for USP18 over DUBs was confirmed in a similar ABPP experiment using a Rhodamine‐tagged ubiquitin propargylamide probe (Rho‐Ub‐PA),^[ [42] ^] which labels the active site cysteine of all active cysteine DUBs.
Figure 6 Inhibition of murine USP18 activity in living cells. a) Gel‐based ABPP potency assessment using a Rho‐mISG15ct‐PA probe in HEK293T cells overexpressing Flag‐mUSP18. At 24 h following transfection, cells were incubated with DMSO or increasing concentrations of indicated inhibitors for 4 h, lysed, and treated with Rho‐mISG15ct‐PA probe. Top panel: fluorescence scan. Middle panel: anti‐Flag western blot. Bottom panel: anti‐GAPDH western blot confirms equal loading. b) Accumulation of ISGylation in mouse IFN‐β‐stimulated EL4 cells. At 24 h following mouse IFN‐β treatment, cells were incubated with DMSO or increasing concentrations of indicated inhibitors for 4 h, lysed, and treated with Rho‐mISG15ct‐PA probe. […] Middle panel: fluorescence scan. […]
Samples were then diluted 3-fold with water and analyzed by mass spectrometry by injecting 2 μL into a Waters XEVO-G2 XS Q-TOF mass spectrometer equipped with an electrospray ion source in positive mode (capillary voltage 1.2 kV, desolvation gas flow 900 L/h, T = 60 °C) with a resolution of R = 26,000. […]

[1] = target: T3, human USP18/ISG15 interaction (Homo sapiens, UniProt Q9UMW8); assay: NanoBRET assay, hUSP18/ISG15 interaction in HEK293T cells
T3 sequence (Q9UMW8 1-372): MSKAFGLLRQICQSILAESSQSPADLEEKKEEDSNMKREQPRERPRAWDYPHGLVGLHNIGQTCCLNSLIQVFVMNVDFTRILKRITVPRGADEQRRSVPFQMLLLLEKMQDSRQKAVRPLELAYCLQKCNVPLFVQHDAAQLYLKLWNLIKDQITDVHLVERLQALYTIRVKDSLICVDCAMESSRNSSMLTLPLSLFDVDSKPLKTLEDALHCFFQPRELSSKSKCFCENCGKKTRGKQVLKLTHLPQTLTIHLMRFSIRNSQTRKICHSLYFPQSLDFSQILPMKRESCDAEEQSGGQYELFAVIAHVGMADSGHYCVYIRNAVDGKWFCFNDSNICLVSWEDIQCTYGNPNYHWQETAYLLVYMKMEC
Description: We tested whether our USP18 activity inhibitor could also affect USP18's nonenzymatic function using our recently developed NanoBRET assay to monitor the interactions of USP18 with STAT2 and ISG15.^[ [43] ^]
normalised to the DMSO control and inhibition was assessed by fitting the data to a dose-
Data are shown as mean ± SD from one biological replicate with
three technical replicates.
Transient NanoBRET assays were performed
following the manufacturer’s instructions (Promega). Briefly, HEK293T cells were transfected
with NanoLuc and HaloTag fusion vectors at 1:100 ratio (20 ng NanoLuc and 2 µg HaloTag
plasmid). After approx. 20 h, cells were harvested, resuspended in phenol red–free Opti-MEM
media supplemented with 4% FCS, and plated in white, flat-bottom, 96-well tissue culture
Immediately before signal detection,
NanoBRET Nano-Glo substrate (Promega) was added, and luminescence was recorded using
nm (HaloTag acceptor). The corrected NanoBRET ratio (mBU) was calculated by dividing the
acceptor signal by the donor signal and subtracting the background signal obtained from the

Row | kinact/KI (mUSP18) | concentration at which inhibition of mUSP18 probe labelling is observed (Flag-mUSP18) | inhibition of hUSP18/ISG15 interaction [1] | Structure (SMILES)
1 | 4650 M⁻¹ s⁻¹ | ≤ 1 µM | did not observe any inhibition | Cc1cc(C(=O)N[C@H]2C[C@@H]3CN(C#N)C[C@@H]3C2)ccc1C(C)C [BB07CA902]
2 |  | ≤ 1 µM |  | Cc1cc(C(=O)N[C@H]2C[C@@H]3CN(C#N)C[C@@H]3C2)ccc1Br [BB07CA28]
